Measurements from ChEMBL document CHEMBL3351927, “Pyrrole alkaloids from the fruits of Morus alba” (Bioorg Med Chem Lett, 2014).

Target: T1, Pancreatic triacylglycerol lipase (Sus scrofa) (UniProt P00591)
T1 sequence (whole entry): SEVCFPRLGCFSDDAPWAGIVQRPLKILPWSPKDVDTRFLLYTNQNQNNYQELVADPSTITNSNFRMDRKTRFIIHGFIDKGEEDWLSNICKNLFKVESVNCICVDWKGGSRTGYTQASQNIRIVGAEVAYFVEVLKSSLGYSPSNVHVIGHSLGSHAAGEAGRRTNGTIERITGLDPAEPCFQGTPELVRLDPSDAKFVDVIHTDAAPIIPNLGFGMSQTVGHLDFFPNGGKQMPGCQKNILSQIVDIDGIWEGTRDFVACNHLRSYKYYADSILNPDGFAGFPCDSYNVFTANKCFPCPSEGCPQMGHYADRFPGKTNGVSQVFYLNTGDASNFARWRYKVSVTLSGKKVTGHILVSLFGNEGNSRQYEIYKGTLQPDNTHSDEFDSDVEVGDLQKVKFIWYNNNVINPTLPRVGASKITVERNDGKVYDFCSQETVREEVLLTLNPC
Assay: Inhibition of porcine pancreatic lipase assessed as p-NPB substrate hydrolysis at 100 uM after 15 mins by microplate reader

SMILES | inhibition [%]
O=Cc1ccc2n1C(Cc1ccc(O)cc1)C(=O)OC2 (configuration not stated) | 70
COCc1ccc(C=O)n1C(C)C(=O)OC (configuration not stated) | 40
